Data set [1] deals with T47D cells. The experiment in a line: ^DPMIα delivery cell viability assay. The class given is cell-based, human. As to conditions: 48 h incubation; presence of sera; resazurin reduction potential. On the procedure:
A variety of cell types and cargos confirmed the potency and versatility of Phylomer CPP delivery. Different functional assays applied readouts designed to directly quantify delivery of an established biologic cargo. […] CPP_^DPMIα synthetic peptides (Supplementary Table 7 and Fig. 3a, cargo 2) reduced viability of human breast tumor cells (T47D) in the presence of sera, indicating the successful delivery of ^DPMIα into the cells (Fig. 5a).
All cell viability studies were performed in the presence of FCS. Cells were seeded at 2.5–5 × 10^3 cells/well, depending on cell line, in 96-well plates (PAP assays: CHO-K1 at 3 × 10^3 cells/well; peptide cytotoxicity assays: CHO-K1 at 5 × 10^3 cells/well; Bouganin assay: CHO-K1 and CHO-K1/EGFR at 2.5 × 10^3 cells/well; ^DPMIα assays: T47D at 5 × 10^3 cells/well; Omomyc assays: all cell lines at 5 × 10^3 cells/well). In brief, adherent cells were allowed to adhere for 24 h prior to the addition of treatments whereas suspension cell lines were treated immediately following seeding. […] Membrane integrity was assessed by the release of LDH into the media via the CytoTox-ONE reagent (Promega). Metabolic activity was measured either by resazurin reduction potential using PrestoBlue (Life Technologies) or by ATP activity using CellTitre-Glo (Promega). […] IC50 values were calculated using Prism (version 7.0a, GraphPad).

Data set [2] has as its system CHO-K1 cells. The experiment in a line: Peptide cytotoxicity, cell viability by resazurin reduction. To be noted: CPP alone up to 50 µM, 24 h and 48 h, presence of sera. The class given is cell-based. On the procedure:
To ensure that 1746 and 1746c27 are not innately cytotoxic, we assessed their effect on cell viability. CHO-K1 cells were treated with CPPs in the presence of sera at 24 h (Fig. 4a) and 48 h (Fig. 4b). The effects of CPPs on cellular membrane stability were assessed using a LDH enzymatic assay, measuring LDH release at 2 h (Fig. 4c) and 24 h (Fig. 4d) after peptide addition.
All cell viability studies were performed in the presence of FCS. Cells were seeded at 2.5–5 × 10^3 cells/well, depending on cell line, in 96-well plates (PAP assays: CHO-K1 at 3 × 10^3 cells/well; peptide cytotoxicity assays: CHO-K1 at 5 × 10^3 cells/well; Bouganin assay: CHO-K1 and CHO-K1/EGFR at 2.5 × 10^3 cells/well; ^DPMIα assays: T47D at 5 × 10^3 cells/well; Omomyc assays: all cell lines at 5 × 10^3 cells/well). In brief, adherent cells were allowed to adhere for 24 h prior to the addition of treatments whereas suspension cell lines were treated immediately following seeding. Following 2–48 h incubations with treatments, cell viability was measure by a variety of methods. Membrane integrity was assessed by the release of LDH into the media via the CytoTox-ONE reagent (Promega). Metabolic activity was measured either by resazurin reduction potential using PrestoBlue (Life Technologies) or by ATP activity using CellTitre-Glo (Promega). […] IC50 values were calculated using Prism (version 7.0a, GraphPad).
(Alamar Blue is a resazurin reagent that responds to reducing activity.)

Data set [3] concerns C57BL/6J mice. The experiment in a line: Serum parameters of kidney and liver toxicity in mice. The data set is classed as in vivo, mouse. As to conditions: 40 mg/kg/day IP for 7 days, n = 6. As to the method: To examine 1746c27 toxicity in vivo, a cohort of adult male C57BL/6J mice (n = 6) were treated with the CPP. Following approved standard preliminary toxicity testing guidelines (Food and Drug Administration, FDA, and European Medicines Agency, EMA), mice were injected intraperitoneally daily for 7 days with 40 mg/kg of 1746c27. After a further 8 days the mice were culled (on day 15) and serum was extracted and used to examine kidney and liver toxicity. Urea, creatinine, aspartate transaminase (AST) and alanine transaminase (ALT) concentrations were measured. […] ALT (p = 0.054) and creatinine (p = 0.01) levels were lower compared to untreated control mice, which supports the finding of minimal toxicity.
All mouse studies were approved by the Animal Ethics Committee of The University of Western Australia in accordance with the Australian Code of Practice for the Care and Use of Animals for Scientific Purposes (NH&MRC, 8th Edition, 2013). Studies were performed using adult male C57BL/6J mice weighing approximately 20 g. Mice were treated with 1746c27 (40 mg/kg/day intraperitoneally) for 7 days (day 1–7), followed by no treatment on days 8–15. On day 15, mice were anesthetized with intraperitoneal injection of pentobarbitone sodium (240 mg/kg), and their terminal blood collected. Serum was extracted and used to measure kidney and liver toxicity. Urea and creatinine concentration was assessed using QuantiChrom Urea and Creatinine assay kits, respectively (BioAssay Systems). Aspartate transaminase (AST) and alanine transaminase (ALT) concentration were measured using EnzyChrom Aspartate Transaminase and Alanine Transaminase assay kits, respectively (BioAssay Systems). All assays were performed as per manufacturer’s instructions, using a spectrophotometer (PowerWave XS).

Data set [4] has as its system HL-60 (promyelocytic leukemia). The experiment in a line: Omomyc cell viability assay (ATP activity). The class given is cell-based. To be noted: 48 h. The source says: (§1) Next 1746c27 was used to deliver the Omomyc[45],[46] protein cargo. This well-characterized dominant-negative protein directly binds and inhibits the transcription factor MYC. A master regulator of critical cellular processes, MYC is an intracellular oncoprotein target deemed “undruggable” using conventional biological therapeutics. Treatment with recombinant 1746c27_Omomyc (Fig. 3a, cargo 4) induced a dose-dependent decrease in cell viability in MYC-dependent blood cancer cell lines and T47D cells in the presence of sera. […] The potency of 1746c27_Omomyc was greater than small molecule inhibitors of MYC, 10058-F4 and KJ-Pyr9 (Supplementary Fig. 8).
(§2) All cell viability studies were performed in the presence of FCS. […] Membrane integrity was assessed by the release of LDH into the media via the CytoTox-ONE reagent (Promega). Metabolic activity was measured either by resazurin reduction potential using PrestoBlue (Life Technologies) or by ATP activity using CellTitre-Glo (Promega). […] IC50 values were calculated using Prism (version 7.0a, GraphPad).

For data set [5], the system named is AMO-1 (plasmacytoma). The experiment in a line: Omomyc cell viability assay (ATP activity). The class given is cell-based. To be noted: 48 h.
Excerpt: as §1, §2

Data set [6] concerns T47D (breast cancer). Description: Omomyc cell viability assay (ATP activity). The data set is classed as cell-based, human. To be noted: 48 h.
Excerpt: as §1, §2

For data set [7], the system named is C57BL/10ScSn^mdx mice. Description: Exon skipping in vivo by RT-PCR and Western blot. As to conditions: five IP injections over two weeks, 4 nmoles per dose; RT-PCR / immunoblot; diaphragm, tibialis anterior, heart. Also noted: species or system mouse. As to the method:
Exon skipping in vivo was evaluated at the (a, c) RNA and (b) protein level in the Duchenne muscular dystrophy mouse disease model. RNA was extracted from tissues of C57BL/10ScSn^mdx mice treated with five intra-peritoneal injections of CPP_PMO cargo over two weeks at 4 nmoles per dose (injected volume increased with increased weight of the mice). Pip6, a traditional carrier CPP for peptide-oligonucleotide conjugates in the mdx disease model of DMD^9, was tested in vivo in parallel for comparison. All samples were loaded onto the gel using normalization by myosin densitometry, to enable a quantitative comparison.^10
Tissues were sectioned (6 µm thickness) before adding lysis buffer. Otherwise exon skipping assays and RT-PCR detection were performed following the same protocols used for detection of exon skipping in vitro in myoblasts cells (see Methods of main text).
Samples were vortexed for 10 sec, sonicated at a setting of 30/100 (Sonics sonicator) for 6 x 1 sec pulses, heated at 95 °C for 5 min and centrifuged at 14,000rpm on a Beckman microfuge for 4 min before loading. Total protein was quantitated by BCA assay (Pierce). Average total protein concentration was 2.3 µg/µl. […] Coomassie stained bands were analysed using Bio1D software and the results were used as a loading control to provide equal loading for the western gel that followed. […]
(In western blotting, separated proteins are transferred to a membrane and probed.)

Square brackets hold non-standard residues; d marks the D form. Peptide text beside a SMILES is read from it.

By IC50 is commonly meant the concentration needed to halve the response being measured. Turning to `CC(=O)NCC(=O)N[C@@H](CCCNC(=N)N)C(=O)N[C@@H](CCCCN)C(=O)N[C@@H](CCCCN)C(=O)N[C@@H](CCCNC(=N)N)C(=O)N[C@@H](CCCNC(=N)N)C(=O)N[C@@H](CCC(N)=O)C(=O)N[C@@H](CCCNC(=N)N)C(=O)N[C@@H](CCCNC(=N)N)C(=O)N[C@@H](CCCNC(=N)N)C(=O)NCC(=O)N[C@@H](C)C(=O)N[C@@H](CO)C(=O)N[C@@H](C(=O)N[C@H](CC(N)=O)C(=O)N[C@H](Cc1c[nH]c2ccccc12)C(=O)N[C@H](Cc1ccc(O)cc1)C(=O)N[C@H](C)C(=O)N[C@H](CC(N)=O)C(=O)N[C@H](CC(C)C)C(=O)N[C@H](CCC(=O)O)C(=O)N[C@H](CCCCN)C(=O)N[C@H](CC(C)C)C(=O)N[C@H](CC(C)C)C(=O)N[C@H](CCCNC(=N)N)C(N)=O)[C@H](C)O` [TAT_^DPMIα, reference compound] (Ac-GRKKRRQRRRGAS[dT][dN][dW][dY][dA][dN][dL][dE][dK][dL][dL][dR]-NH2), the IC50 in data set [1] amounted to 36.6 µM.

Take “Ac-PLKPKKPKTQEKKKKQPPKPKKPKTQEKKKKQPPKPKRGAS[dT][dN][dW][dY][dA][dN][dL][dE][dK][dL][dL][dR]-NH2 [1746_^DPMIα]”: in data set [1], the IC50 stood at 9.1 µM.

Regarding “Ac-KKKKQPPKPKKPKTQEKKKKQPPKPKR-NH2 (N-terminus and C-terminus assumed) [1746c27]”, the “cytotoxic activity, cell viability” value in data set [2] is “no measurable cytotoxicity”. In data set [3], the “toxicity in vivo, in words” value is given as “minimal evidence of toxicity”. In data set [3] (serum day 15), the “ALT Mean” value came to 59.73 U/L, the “AST Mean” value is given as 84.98 U/L, the “Creatinine Mean” value amounted to 0.33 mg/dL and the “Urea Mean” value came out at 50.99 mg/dL. Moreover, in data set [4], the “effect on cell viability, in words” value is “no notable effect on cell viability”. The “effect on cell viability, in words” value in data set [5] is recorded as “no notable effect on cell viability”. Further, in data set [6], the “effect on cell viability, in words” value was “no notable effect on cell viability”. The “exon 23 skipping in tissues, in words” value in data set [7] is “not detected”.

These data come from paper PMC6105642, “A platform for discovery of functional cell-penetrating peptides for efficient multi-cargo intracellular delivery” (Scientific Reports, 2018).
